# According to patent US9732151B2, “Biomarkers for TSLP treatment” (Merck Sharp & Dohme Corp., priority 2011, dated 2017):
# How the values were obtained:
# [1] = test system: biomarker genes in skin of calcipotriol treated mice; assay: Vitamin D (calcipotriol) induced skin inflammation, real-time PCR of skin mRNA, +/- anti-TSLP; assay type: in vivo, mice (Balb/c); settings: calcipotriol 2 nmol/ear daily, skin at day 8 (FIG. 5)
# Method: (§1) Vitamin D Induced Skin Inflammation: The vitamin D analogue, calcipotriol (Tocris, Ellisville, Mo.), was dissolved in ethanol and was applied daily to both sides of the ears at a final concentration of 2 nmol/ear. Control animals were given ethanol only. Ear swelling was measured daily using an engineer's pressure gauge (Peacock, Japan) and blood was collected. The blood was spun at 10.000 rpm for 5 minutes to separate the serum, which was frozen at −80 C. until analyzed by ELISA. Calcipotriol applications were stopped on day 8 (Balb/c mice), ears were harvested and fixed in 10% formalin for pathological evaluation or frozen directly in liquid nitrogen for mRNA extraction.
# Neutralization Experiments: mice were treated with 0.1, 0.4, 1, 4, 12, 40 and 120 mgs per kg (mpk) of a rat anti-mouse TSLP antibody (designated “22E5”) subcutaneously (s.c.) one day (d−1) prior to VitD3 treatment. Control mice received isotype antibody at 4 and 40 mpk. The mice were sacrificed at day 8.
# Real-time PCR was conducted on mRNA extracted from skin tissue of mice treated with calcipotriol in the absence or the presence of an antagonistic anti-TSLP antibody or an isotype control
# [2] = test system: biomarker genes in skin of TSLPR KO mice; assay: Calcipotriol skin inflammation in TSLPR KO mice, real-time PCR of skin mRNA; assay type: in vivo; settings: calcipotriol vs ethanol
# Method: as §1, with “Mice: Six- to eight-week-old Balb/c were obtained from Jackson Labs (Bar Harbour, Me.). TSLPR KO mice were obtained from Dr. W. Leonard, NIH, Bethesda, Md. (Al Shami et al., J. Exp. Med. 200:159-168 (2004). Age-matched males were used for the time-course study and females for two efficacy studies. Vitamin” for “Vitamin”, “-80” for “−80”, “extraction. […] Similarly, real-time PCR was conducted on mRNA extracted from skin tissue of TSLPR KO mice treated with either ethanol (vehicle control) or calcipotriol.” for “extraction.”
# [3] = test system: biomarker proteins in BAL fluid of HDMA-challenged monkeys; assay: BAL fluid biomarkers (western blot, ELISA) in HDMA-challenged monkeys before and after corticosteroid therapy; assay type: in vivo, cynomolgus macaques (Macaca fascicularis)
# Method: Western blot analysis of BAL fluid samples: Western blot analysis was performed on BAL fluid samples. 200 uL of each BAL fluid sample was acetone precipitated in 4 volumes of cold acetone overnight and resuspended in 1× NUPAGE® (chemical preparations used for life sciences research) LDS sample loading buffer. An equal amount was separated on a 4-12% NUPAGE® (chemical preparations used for life sciences research) gels, and gels were electroblotted onto PVDF membranes overnight at 10V in NUPAGE® (chemical preparations used for life sciences research) transfer buffer. Membranes were blocked in 5% fat-free milk in TBS/T (10mM TrisHC1 pH 7.5, 100 mM NaC1, 0.1% TWEEN® 20 (polysorbate 20)) for 1 hour and incubated with specific antibodies according to the manufacturer's instructions in 1% milk in TBS/T for another 2 hours. Blots were incubated with HRP-labeled secondary antibodies (chicken anti-goat) IgG, R&D Systems, Minneapolis, Minn. or donkey anti-rabbit Ig-G, GE Healthcare, Piscataway, N.J.) in 1% milk in TB S/T for another hour and detection was performed with ECL+(GE Healthcare). Primary antibodies used included anti-mouse LCN2, anti-mouse sICAM-1, anti-human sICAM-1 (for monkey studies), anti-mouse GP-39, anti-mouse YM1, and anti-mouse pIgR (all from R&D Systems); and anti-mouse UG, anti-mouse AMCase, anti-human AMCase (for monkey studies), anti-mouse CLCA3, and anti-human CLCA1 (for monkey studies) (all from Santa Cruz Biotechnology, Santa Cruz, Calif.). […] After autoradiography visualization, membranes were dried and scanned on a Typhoon 9400 (GE Healthcare) for ECL+(457 nm excitation and 520BP40 emission). Image analysis was conducted using ImageQuant v5.2 (GE Healthcare) and band intensity reported as sum of pixel values above background.
# At this time, animals were challenged with nebulized HDMA (1 to 2500 AU/mL for 4 minutes) at a concentration that induced an early asthmatic response, defined as a 100% increase in lung resistance, 40% decrease in dynamic compliance, or decline in arterial oxygen saturation to ≦70%. Airway inflammation and reactions to nebulized histamine and methacholine 24 hours after allergen challenge were measured periodically to confirm chronic asthmatic responses. Wardle-Fick methods were used to obtain BAL fluid. BAL cells were then separated from the fluid phase. […] In corticosteroid treatments experiments, animals were challenged with HDMA and BAL fluid was collected 24 hours later (“Pre”).
# [4] = test system: HDMA-challenged monkeys; assay: Asthma symptoms in HDMA-induced asthma in nonhuman primates after corticosteroid treatment; assay type: in vivo, cynomolgus macaques (Macaca fascicularis); settings: high-dose corticosteroids for 2 weeks, data not shown
# From the text: House mite allergen (HDMA)-induced asthma in nonhuman primates: Juvenile macaques (Cynomolgus fascicularis, 30 to 42 months of age) were purchased from Alphagenesis (Yemassee, S.C.). Animals were sensitized to HDMA over a 7.5 month period by intraperitoneal injection of 312 AU Dermatophagoides pteronyssinus extract (Greer Laboratories, Lenoir, N.C.) absorbed to IMJECT® (reagents used in connection with enhancing immune responses) Alum (Pierce, Rockford, Ill.) administered every two weeks until HDMA-specific IgE titers approached levels in control allergic serum, and then at 4-week intervals until aeroallergen challenge. At this time, animals were challenged with nebulized HDMA (1 to 2500 AU/mL for 4 minutes) at a concentration that induced an early asthmatic response, defined as a 100% increase in lung resistance, 40% decrease in dynamic compliance, or decline in arterial oxygen saturation to ≦70%. Airway inflammation and reactions to nebulized histamine and methacholine 24 hours after allergen challenge were measured periodically to confirm chronic asthmatic responses. Wardle-Fick methods were used to obtain BAL fluid. BAL cells were then separated from the fluid phase. Mass spectrometry compared BAL fluid from sensitized animals before and after HDMA challenge. In corticosteroid treatments experiments, animals were challenged with HDMA and BAL fluid was collected 24 hours later (“Pre”). Animals then received weekly doses of methylprednisolone succinate (4.5 mg/kg intramuscularly) for two weeks, followed by a single dose of methylprednisolone acetate (10 mg/kg […].) one week later at the time of allergen challenge. BAL fluid was collected 24 hours following challenge (“Post”). Animal husbandry was conducted under USDA guidelines. All protocols were approved by the Institutional Animal Care and Use Committee of East Carolina University.
# [5] = test system: biomarkers in BAL fluid or cell mRNA; assay: Table VIII summary: biomarkers down with steroids in BAL fluid or BAL cell mRNA; assay type: in vivo, mice
# From the text: (§2) mRNA isolation from BAL cells and qRT-PCR: Total RNA was isolated from BAL cells using the RNeasy method (Qiagen, Valencia, Calif.) and reverse-transcribed using WT-OVATION ® (chemicals, assays, and reagents for nucleic acid sequence amplification, sequencing and sequence analysis and detection) Pico System (NuGen Technologies, San Carlos Calif.). Primers were designed using Primer Express software (Applied Biosystem, Foster City, Calif.) or obtained commercially from Applied Biosystems (ABI). qRT-PCR was performed on 10 ng of cDNA from each sample as described previously. Chan et al., J. Exp. Med. 203:2577-87 (2006).
# Western blot analysis of BAL fluid samples: Western blot analysis was performed on BAL fluid samples. 200 uL of each BAL fluid sample was acetone precipitated in 4 volumes of cold acetone overnight and resuspended in 1× NUPAGE® (chemical preparations used for life sciences research) LDS sample loading buffer. An equal amount was separated on a 4-12% NUPAGE® (chemical preparations used for life sciences research) gels, and gels were electroblotted onto PVDF membranes overnight at 10V in NUPAGE® (chemical preparations used for life sciences research) transfer buffer. Membranes were blocked in 5% fat-free milk in TBS/T (10mM TrisHC1 pH 7.5, 100 mM NaC1, 0.1% TWEEN® 20 (polysorbate 20)) for 1 hour and incubated with specific antibodies according to the manufacturer's instructions in 1% milk in TBS/T for another 2 hours. Blots were incubated with HRP-labeled secondary antibodies (chicken anti-goat) IgG, R&D Systems, Minneapolis, Minn. or donkey anti-rabbit Ig-G, GE Healthcare, Piscataway, N.J.) in 1% milk in TB S/T for another hour and detection was performed with ECL+(GE Healthcare). Primary antibodies used included anti-mouse LCN2, anti-mouse sICAM-1, anti-human sICAM-1 (for monkey studies), anti-mouse GP-39, anti-mouse YM1, and anti-mouse pIgR (all from R&D Systems); and anti-mouse UG, anti-mouse AMCase, anti-human AMCase (for monkey studies), anti-mouse CLCA3, and anti-human CLCA1 (for monkey studies) (all from Santa Cruz Biotechnology, Santa Cruz, Calif.). Polyclonal anti-mouse Reg3γ was generated at Schering-Plough Biopharma. After autoradiography visualization, membranes were dried and scanned on a Typhoon 9400 (GE Healthcare) for ECL+(457 nm excitation and 520BP40 emission). Image analysis was conducted using ImageQuant v5.2 (GE Healthcare) and band intensity reported as sum of pixel values above background.
# ELISAs: Mouse LCN2, GP-39, sICAM-1, and YM1 proteins were quantified using QUANTIKINE® (in vitro immunoassay kits) or DUOSET® (biological reagents for use in research applications to identify cytokines by immunoassay) ELISA kits (R&D Systems) using a Vmax spectrophotometer with SoftMax Pro software (Molecular Devices); mouse IL-4, IL-5, and IL-13 were measured using a Luminex 100 machine with LINCOPLEX® (panels for taking immunoassay measurements and testing cytokine and endocrine hormones) multiplex kits (Millipore) and analyzed with MasterPlex software (Miraibio). Monkey YKL-40 was quantified via ELISA (Quidel), analyzed as above.
# [6] = test system: biomarker genes in lung tissue of TSLP Tg mice; assay: qRT-PCR of biomarker genes in lung tissue, steroid-treated TSLP Tg mice; assay type: in vivo
# Method: TSLP Tg mice, on the BALB/c background, were obtained from the laboratory of Steven Ziegler. Zhou et al., Nat. Immunol. 6:1047-53 (2005). Non-transgenic littermates served as control mice. BALB/c mice (for ovalbumin (OVA)-induced asthma experiments) were purchased from the Jackson Laboratory. The standard model of OVA-induced asthma described below was used. In dexamethasone-treatment experiments, 12 week-old TSLP Tg mice were injected i.p. daily for 2 weeks with 2 mg/kg dexamethasone 21-phosphate disodium salt (Sigma) in sterile PBS, or with sterile PBS alone as a control. Colonies were maintained in a specific pathogenic-free environment.
# Harvest of murine BAL fluid, BAL cells, and lung tissue: BAL fluid was isolated by washing the lung (through the trachea) with 1mL of PBS. Lavage fluid was kept on ice and centrifuged at 400g for 5 min. The supernatant was frozen for cytokine analysis, and the cell pellet was resuspended in 1mL of PBS for total viable cell count by Vi-CELL ([…]) and cell differentials by cytospin. Slides were air-dried, fixed with 95% ethanol, and stained with Wright-Giemsa (Sigma-Aldrich). A minimum of 200 cells were counted under the microscope per slide for cell differentials. The postcaval lung lobe and BAL cells were collected and snap-frozen in liquid nitrogen for qRT-PCR analysis as described previously for tissue (Chan et al., J. Exp. Med. 203:2577-87 (2006)) and below for BAL cells. The single left lung lobe was excised for histology and clinical scoring as described below.
# as §2
compound,measurement,setting,value
C=C1/C(=C\C=C2/CCC[C@]3(C)[C@@H]([C@H](C)/C=C/[C@@H](O)C4CC4)CC[C@@H]23)C[C@@H](O)C[C@@H]1O [calcipotriol],"upregulation of EAR11, MMP12, LCN2, YM1, YM2, YKL-40, Reg3 g, PGLYRP1, CD44 mRNA in skin",[1],≥ 2 fold
same,"EAR11, MMP12, and YM2 mRNA in skin",[2],not upregulated
"C[C@H]1C[C@@H]2[C@H]([C@@H](O)C[C@@]3(C)[C@H]2CC[C@]3(O)C(=O)COC(=O)CCC(=O)O)[C@@]2(C)C=CC(=O)C=C12 [corticosteroid, methylprednisolone succinate]",disease biomarkers in BAL fluid,"[3]; HDMA-challenged monkeys, 2 weeks of corticosteroid therapy (FIG. 4)",Reduction
same,"expression of LCN2, UG, pIgR, PAP, and CLCA1 in BAL fluid","[3]; Post vs Pre corticosteroid, trending downward, data not shown",not significantly reduced
same,GP-39 in BAL fluid,"[3]; by ELISA, Post vs Pre corticosteroid (FIG. 4B)",significantly reduced
same,"AMCase, sICAM-1, CLCA1 in BAL fluid","[3]; by western blot, Post vs Pre corticosteroid (FIG. 4A)",significantly reduced
same,airway eosinophil recruitment,[4],reduced
same,asthma symptoms,[4],reduced
same,lung function,[4],improved
"C[C@@H]1C[C@H]2[C@@H]3CCC4=CC(=O)C=C[C@]4(C)[C@@]3(F)[C@@H](O)C[C@]2(C)[C@@]1(O)C(=O)CO [Steroids, dexamethasone]",Down with Steroids (BAL fluid or cell mRNA): AMCase (Chia),[5],— (a dash indicates a biomarker not reduced upon treatment)
same,Down with Steroids (BAL fluid or cell mRNA): ECP (Ear11),[5],— (a dash indicates a biomarker not reduced upon treatment)
same,Down with Steroids (BAL fluid or cell mRNA): LTF,[5],— (a dash indicates a biomarker not reduced upon treatment)
same,Down with Steroids (BAL fluid or cell mRNA): MMP12,[5],— (a dash indicates a biomarker not reduced upon treatment)
same,Down with Steroids (BAL fluid or cell mRNA): Reg3γ,[5],— (a dash indicates a biomarker not reduced upon treatment)
same,Down with Steroids (Lung Tissue): CLCA3,[6],— (a dash indicates a biomarker not reduced upon treatment)
same,Down with Steroids (Lung Tissue): Chi3l4 (YM2),[6],— (a dash indicates a biomarker not reduced upon treatment)
same,Down with Steroids (Lung Tissue): ECP (Ear11),[6],— (a dash indicates a biomarker not reduced upon treatment)
same,Down with Steroids (Lung Tissue): FCGBP,[6],— (a dash indicates a biomarker not reduced upon treatment)
same,Down with Steroids (Lung Tissue): ICAM-1,[6],— (a dash indicates a biomarker not reduced upon treatment)
same,Down with Steroids (Lung Tissue): LCN2,[6],— (a dash indicates a biomarker not reduced upon treatment)
same,Down with Steroids (Lung Tissue): PGLYRP1,[6],— (a dash indicates a biomarker not reduced upon treatment)
same,Down with Steroids (Lung Tissue): RETNLβ,[6],— (a dash indicates a biomarker not reduced upon treatment)
same,Down with Steroids (Lung Tissue): Reg3γ,[6],— (a dash indicates a biomarker not reduced upon treatment)
